Experimental data reported in patent publication US10899710B2, “Pyridines and their use in the treatment of cancer” (The United States of America, as represented by the …, priority 2015, dated 2021).
Structures can show the parent of a compound that is named as a salt. Where two headings read alike, the source gives them in different places.

Columns and labels:
[1] = target: T1, recombinant thioredoxin reductase 1 (TrxR1) (Homo sapiens, UniProt Q16881); experiment: Inhibition of recombinant TrxR1 (DTNB assay); type: biochemical; settings: read-out: TrxR inhibition (IC50)
T1 sequence (Q16881 151-649 limits assumed): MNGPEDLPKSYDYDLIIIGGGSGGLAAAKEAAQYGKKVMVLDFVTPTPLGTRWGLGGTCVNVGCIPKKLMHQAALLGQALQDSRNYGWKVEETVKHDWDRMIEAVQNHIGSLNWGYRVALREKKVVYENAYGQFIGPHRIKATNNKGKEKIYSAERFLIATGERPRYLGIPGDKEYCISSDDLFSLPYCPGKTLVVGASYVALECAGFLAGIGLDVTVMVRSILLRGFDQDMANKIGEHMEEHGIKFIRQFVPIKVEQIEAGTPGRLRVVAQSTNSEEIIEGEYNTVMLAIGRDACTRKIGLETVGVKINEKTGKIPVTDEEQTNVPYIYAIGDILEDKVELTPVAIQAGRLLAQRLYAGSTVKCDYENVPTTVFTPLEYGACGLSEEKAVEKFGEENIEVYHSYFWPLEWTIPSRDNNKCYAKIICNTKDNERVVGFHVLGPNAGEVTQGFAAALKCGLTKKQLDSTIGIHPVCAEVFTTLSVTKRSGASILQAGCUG
Protocol: (§1) Small molecule inhibition of recombinant thioredoxin reductase 1 (TrxR1) and gluthathione reductase (GR) was examined in 96-well plate format. 15 nM TrxR1 was incubated in the presence of 250 μM NADPH, 0.1 mg/ml BSA, and various concentrations of the compound of Example 1 (1% DMSO final) in 50 mM Tris (pH 7.5) and 2 mM EDTA buffer for 15 minutes. Following the incubation period, 2.5 mM DTNB was added to each well and the change in O.D. at 412 nm was followed. Percent activity was determined using DMSO vehicle and no TrxR1 (blank) controls. 2 nM GR was incubated in the presence of 250 μM NADPH, 0.1 mg/ml BSA, and various concentrations of compounds (1% DMSO final) in 50 mM Tris (pH 7.5) and 2 mM EDTA buffer for 15 minutes. Following the incubation period, 1 mM GSSG was added to each well and the change in O.D. at 340 nm was followed. Percent activity was determined using DMSO vehicle and no GR (blank) controls.

[2] = target: T2, gluthathione reductase (GR) (Homo sapiens, UniProt P00390); experiment: Inhibition of recombinant GR (GSSG assay); type: biochemical
T2 sequence (P00390 44-522): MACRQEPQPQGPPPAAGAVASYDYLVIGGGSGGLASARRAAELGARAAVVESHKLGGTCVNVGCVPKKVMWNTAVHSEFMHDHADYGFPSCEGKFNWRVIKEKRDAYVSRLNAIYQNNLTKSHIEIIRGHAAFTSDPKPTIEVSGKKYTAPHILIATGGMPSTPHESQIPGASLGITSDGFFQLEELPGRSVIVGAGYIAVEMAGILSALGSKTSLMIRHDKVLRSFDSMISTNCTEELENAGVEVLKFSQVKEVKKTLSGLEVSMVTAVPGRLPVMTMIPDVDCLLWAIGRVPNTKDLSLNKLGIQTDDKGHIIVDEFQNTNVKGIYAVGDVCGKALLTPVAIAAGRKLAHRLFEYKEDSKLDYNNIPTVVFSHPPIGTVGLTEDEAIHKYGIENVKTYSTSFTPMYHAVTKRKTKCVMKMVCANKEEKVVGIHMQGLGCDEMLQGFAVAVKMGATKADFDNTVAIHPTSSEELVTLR
Protocol: as §1

FaDu cell line = experiment: Cell viability inhibition, FaDu cell line; type: cell-based; settings: Homo sapiens, Biological Example 4, 72 hrs
Protocol: Cell lines were plated 2000 cells/well in 96-well black optical plates in the presence of 10% FBS media containing 25 nM selenite. The following day cells were treated with various concentrations of the compound of Example 1 (0.1% DMSO final) and incubated for 72 hrs. After the incubation Cell-Quanti Blue reagent was added to each well and incubated for additional 3 hrs. Fluorescence was read ex:530 nm/em:590 nm, and percent of viability was determined using DMSO vehicle and no cell (blank) controls.
Using the assays described in Biological Example 1 to assess inhibition of recombinant TrxR1 and GR, the following IC50 values were obtained for the examples described herein. Further, following the protocol described in Biological Example 2, the following IC50 values were obtained for inhibition of cell viability using the FaDu cell line.

[3] = Biological Example 1, 15 nM TrxR1, 15 minutes incubation
[4] = Biological Example 1, 2 nM GR, 15 minutes incubation

Row | SMILES | IC50 ([1]; Biological Example 4) [nM] | IC50 ([2]; Biological Example 4) [nM] | IC50 [1, 3] [nM] | IC50 [2, 4] [nM] | IC50 (FaDu cell line) [nM]
1 | O=[N+]([O-])c1cccnc1S(=O)(=O)c1ccccc1 [Example 2, 3-Nitro-2-(phenylsulphonyl)pyridine Trifluoroacetate] | 289 | > 100000 | 155 | > 100000 | 1420
2 | COc1ccc([N+](=O)[O-])c(S(=O)(=O)c2ccccc2)n1 [Example 4, 6-Methoxy-3-nitro-2-(phenylsulphonyl)pyridine Trifluoroacetate] | 24 | 30800 | 24 | 25200 | 3260
3 | O=[N+]([O-])c1cccnc1S(=O)(=O)c1ccc(Cl)cc1 [Example 5, 2-((4-Chlorophenyl)sulphonyl)-3-nitropyridine Trifluoroacetate] | 151 | 93000 | 98 | 47900 | 1840
4 | COc1ccc(S(=O)(=O)c2nc(OC)ccc2[N+](=O)[O-])cc1 [Example 7, 6-Methoxy-2-((4-methoxyphenyl)sulfonyl)-3-nitropyridine] | 228 | > 100000 | – | – | 2750
5 | COc1ccc(S(=O)(=O)c2nc(N(C)C)ccc2[N+](=O)[O-])cc1 [Example 12, 6-((4-Methoxyphenyl)sulfonyl)-N,N-dimethyl-5-nitropyridin-2-amine] | 513 | > 100000 | – | – | 7890
6 | CN(C)c1ccc([N+](=O)[O-])c(S(=O)(=O)c2ccccc2)n1 [Example 14, N,N-dimethyl-5-nitro-6-(phenylsulfonyl)pyridin-2-amine] | 345 | > 100000 | – | – | 5320

Further lines, with some results ahead:

Row | IC50 ([1]; Biological Example 4) [nM] | IC50 ([2]; Biological Example 4) [nM] | SMILES | IC50 [1, 3] [nM] | IC50 [2, 4] [nM] | IC50 (FaDu cell line) [nM]
7 | 221 | > 100000 | Cc1ccc(S(=O)(=O)c2ncccc2[N+](=O)[O-])cc1 [Example 3, 3-Nitro-2-tosylpyridine Hydrochloride] | 282 | > 100000 | 2550
8 | 103 | > 100000 | COc1ccc([N+](=O)[O-])c(S(=O)(=O)c2ccc(C)cc2)n1 [Example 6, 6-Methoxy-3-nitro-2-tosylpyridine] | – | – | 1380
9 | 16 | 3570 | O=[N+]([O-])c1ccc(Cl)nc1S(=O)(=O)c1ccc(Cl)cc1 [Example 8, 6-Chloro-2-((4-chlorophenyl)sulfonyl)-3-nitropyridine] | – | – | 840
10 | 70 | 41700 | COc1ccc(S(=O)(=O)c2nc(Cl)ccc2[N+](=O)[O-])cc1 [Example 9, 6-Chloro-2-((4-methoxyphenyl)sulfonyl)-3-nitropyridine] | – | – | 510
11 | 56 | 14500 | O=[N+]([O-])c1ccc(Cl)nc1S(=O)(=O)c1ccccc1 [Example 10, 6-Chloro-3-nitro-2-(phenylsulfonyl)pyridine] | – | – | 250
12 | 40 | 23700 | Cc1ccc(S(=O)(=O)c2nc(Cl)ccc2[N+](=O)[O-])cc1 [Example 11, 6-Chloro-3-nitro-2-tosylpyridine] | – | – | 390
13 | 176 | > 100000 | CN(C)c1ccc([N+](=O)[O-])c(S(=O)(=O)c2ccc(Cl)cc2)n1 [Example 13, 6-((4-Chlorophenyl)sulfonyl)-N,N-dimethyl-5-nitropyridin-2-amine] | – | – | 12900
14 | 438 | > 100000 | Cc1ccc(S(=O)(=O)c2nc(N(C)C)ccc2[N+](=O)[O-])cc1 [Example 15, N,N-dimethyl-5-nitro-6-tosylpyridin-2-amine] | – | – | 5910
